Measurements: US7598234B2, “Steroid derived antibiotics” (Brigham Young University, priority 1998, dated 2009)
Converted amounts (≈) assume the structure as drawn.

Experiments:
[1] = system: E. coli (ATCC 10798); test: Sensitization to erythromycin (concentration lowering the MIC of erythromycin), E. coli (ATCC 10798); assay type: cell-based, Escherichia coli; details: for (a) Concentration required to lower the MIC of erythromycin from 70 to 1 μg/mL / (b) MBC with 1 μg/mL erythromycin / FIC values with erythromycin: Table 9, Escherichia coli (ATCC 10798); for MIC: concentration required to lower the MIC of erythromycin from 70 μg/mL to 1 μg/mL / MBC (with erythromycin): Table 2, E. coli (ATCC 10798); for MBC (with erythromycin): erythromycin sensitization
[2] = system: E. coli (ATCC 10798); test: Sensitization to novobiocin (concentration lowering the MIC of novobiocin), E. coli (ATCC 10798); assay type: cell-based, Escherichia coli; details: for (d) Concentration required to lower the MIC of novobiocin from >500 to 1 μg/mL / FIC values with novobiocin: Table 9, Escherichia coli (ATCC 10798); for MIC: concentration required to lower the MIC of novobiocin from >500 μg/mL to 1 μg/mL / MBC (with novobiocin): Table 3, E. coli (ATCC 10798); for MBC (with novobiocin): novobiocin sensitization
[3] = system: E. coli (ATCC 25922); test: Sensitization to erythromycin, E. coli (ATCC 25922); assay type: cell-based, Escherichia coli; details: for FIC / concentration required to inhibit bacterial growth with antibiotic: Table 11, Escherichia coli ATCC 25922; for FIC: erythromycin (by order); for concentration required to inhibit bacterial growth with antibiotic: erythromycin (by order) at 0.5, 1.0 or 3.0 μg/mL; for MIC: concentration required to lower the MIC of erythromycin from 60 μg/mL to 1 μg/mL / MBC (with erythromycin): Table 5, E. coli (ATCC 25922); for MBC (with erythromycin): erythromycin sensitization
Outline: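 Bacteria grown in TSB with varied cholic acid derivative concentrations; erythromycin (0.5, 1.0 or 3.0 μg/mL) added 15 min later; stationary incubation 37° C, 24 h. Growth read as absorbance at 760 nm, with clear samples subcultured on TSA for CFU/mL; derivative concentration inhibiting growth determined.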

[4] = system: Pseudomonas aeruginosa (ATCC 27853); test: MIC and MBC measurement with Pseudomonas aeruginosa (ATCC 27853); assay type: cell-based
Outline: (§1)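 Inocula mixed 1:1 with TSB containing graded concentrations of cholic acid derivatives, alone or with erythromycin or novobiocin added 15 min later. After static incubation for 24 h at 37 °C, turbidity read at 760 nm; non-turbid samples subcultured on TSA and CFU/mL compared with the starting inoculum.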

[5] = system: Salmonella typhimurium ATCC 14028; test: MIC and MBC measurement with Salmonella typhimurium ATCC 14028; assay type: cell-based; details: Table 10
Outline: as §1

[6] = system: Enterococcus faecalis ATCC 29212; test: MIC and MBC measurement with Enterococcus faecalis ATCC 29212; assay type: cell-based; details: Table 10
Source text: (§2) General: Microorganisms. Reference strains were purchased from the American Type Culture Collection (Rockville, Md.) or Bactrol disks from Difeo Laboratories (Detroit, Mich.). The following specific ATCC strains were used: 10798 Escherichia coli, 25922 Escherichia coli, 13883 Klebsiella pneumoniae, 27853 Pseudomonas aeruginosa, 14028 Salmonella typhimurium, 29212 Enterococcus faecalis, 25923 Staphylococcus aureus, 19615 Streptococcus pyogenes, and 90028 Candida albicans. Bacterial strains were maintained on Mueller-Hinton agar plates, and Candida albicans was maintained on Sabouraud Dextrose agar plates.
(§3) Tryptic soy broth (TSB) was made by dissolving 27.5 grams of tryptic soy broth without dextrose (DIFCO Laboratories) in 1 liter of deionized water and sterilizing at 121° C. for 15 minutes. Solid agar (TSA) plates were made by dissolving 6.4 grams of tryptic soy broth and 12 grams of agar (purified grade, Fischer Scientific) in 800 mL of deionized water and sterilizing at 121° C. for 20 minutes. Aliquots (20 mL) of the homogeneous solution were then poured in sterile plastic petri dishes (100×15 mm, Fisher Scientific). Solutions of compounds were made by dissolving the HCl salt of the respective compound into an appropriate amount of deionized and sterilized water followed by microfiltration.
(§4) Aliquots of 1 mL of the suspension were added to test tubes containing 1 mL TSB and incrementally varied concentrations of cholic acid derivatives and/or erythromycin or novobiocin. In the sensitization experiments, erythromycin or novobiocin were added 15 minutes later than the cholic acid derivatives. The samples were subjected to stationary incubation at 37° C. for 24 hours. Sample turbidity was determined by measuring absorption at 760 nm (HP 8453 UV-Visible Chemstation, Hewlett Packard). Additionally, an alliquot from each of the samples showing no measurable turbidity was subcultured on TSA plates (alliquots were diluted to provide fewer than 300 CFU). Colonies that grew on the subculture after overnight incubation were counted and the number of CFU/mL in the samples were calculated. The calculated values were compared to the number of CFU/mL in the original inoculum.

[7] = system: Staphylococcus aureus ATCC 25923; test: MIC and MBC measurement with Staphylococcus aureus ATCC 25923; assay type: cell-based; details: Table 10; Staphylococcus aureus ATCC 25923
Outline: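 Bacteria incubated statically 24 h at 37 °C in TSB with graded compound concentrations (erythromycin or novobiocin added 15 min later in sensitization runs). MIC from turbidity at 760 nm; MBC by subculturing clear samples on TSA and comparing CFU/mL to inoculum.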

[8] = system: Streptococcus pyrogenes ATCC 19615; test: MIC and MBC measurement with Streptococcus pyogenes ATCC 19615; assay type: cell-based; details: Table 10
Source text: as §2, §3, §4

[9] = system: Klebsiella pneumonia ATCC 13883; test: Growth inhibition and FIC with novobiocin, Klebsiella pneumoniae ATCC 13883; assay type: cell-based; details: Table 12, novobiocin (by order) at 0.5, 1.0 or 3.0 μg/mL
Experimental: (§5) Alternatively, “fractional inhibitory concentration (FIC)” is also useful for determination of synergy between the compounds of the invention, or the compounds in combination with known antibiotics. FICs can be performed by checkerboard titrations of compounds in one dimension of a microtiter plate, and of antibiotics in the other dimension, for example. The FIC is calculated by looking at the impact of one antibiotic on the MIC of the other and vice versa. […] Preferably, an FIC of less than 0.5 is obtained for synergism. As used herein, FIC can be determined as follows:
as §4
(§6) To measure permeabilization, the FIC values for compounds 1, 2, 5, 106, 10, 112, 133, and 134 with erythromycin, novobiocin, and rifampicin were determined. Concentrations of 0.5, 1.0 or 3.0 μg/mL of these antibiotics were used, and the concentrations of the cholic acid derivatives required to inhibit bacterial growth of Gram-negative strains were determined.

[10] = system: Salmonella typhimurium ATCC 14028; test: Growth inhibition and FIC with novobiocin, Salmonella typhimurium ATCC 14028; assay type: cell-based; details: for FIC: Table 12, novobiocin (by order); for concentration required to inhibit bacterial growth with antibiotic: Table 12, novobiocin (by order) at 0.5, 1.0 or 3.0 μg/mL
Experimental: as §5, §4, §6

[11] = system: Pseudomonas aeruginosa ATCC 27853; test: Growth inhibition and FIC with rifampicin, Pseudomonas aeruginosa ATCC 27853; assay type: cell-based; details: Table 13, Pseudomonas aeruginosa ATCC 27853^b; for FIC: rifampicin (by order); for concentration required to inhibit bacterial growth with antibiotic: rifampicin (by order) at 0.5, 1.0 or 3.0 μg/mL
Experimental: as §5, §4, §6

[12] = Table 10, Pseudomonas aeruginosa ATCC 27853
[13] = Table 6, P. aureginosa (ATCC 27853)

Row | Structure (SMILES) | (a) Concentration required to lower the MIC of erythromycin from 70 to 1 μg/mL [1] | (b) MBC with 1 μg/mL erythromycin [1] | FIC values with erythromycin [1] | FIC [3] | concentration required to inhibit bacterial growth with antibiotic [3] | MBC [4, 12] | MIC [4, 12] | MBC [5] | MIC [5] | MBC [6] | MIC [6] | MBC [7] | MIC [7] | MBC [8] | MIC [8] | concentration required to inhibit bacterial growth with antibiotic [9] | FIC [10] | concentration required to inhibit bacterial growth with antibiotic [10] | FIC [11] | concentration required to inhibit bacterial growth with antibiotic [11] | other results
1 | C[C@]12CC[C@@H](OCCCN)C[C@H]1C[C@@H](OCCCN)[C@@H]1[C@@H]2C[C@H](OCCCN)[C@]2(C)[C@@H](O)CC[C@@H]12 [Compound 106] | 30 µg/mL | 160 µg/mL | 0.23 | 0.073 | 3.2 µg/mL | 97 µg/mL (≈ 196 µM) | 85 µg/mL (≈ 171 µM) | >100 µg/mL | >100 µg/mL | >100 µg/mL | 12 µg/mL (≈ 24.2 µM) | 54 µg/mL (≈ 109 µM) | 8.6 µg/mL (≈ 17.3 µM) | 37 µg/mL (≈ 74.6 µM) | 18 µg/mL (≈ 36.3 µM) | 8.9 µg/mL | 0.094 | 8.4 µg/mL | 0.17 | 11 µg/mL | (d) Concentration required to lower the MIC of novobiocin from >500 to 1 μg/mL [2]: 50 µg/mL; FIC values with novobiocin [2]: 0.36
2 | C[C@H](CCCN(C)Cc1ccccc1)[C@H]1CC[C@H]2[C@@H]3[C@H](OCCN)C[C@@H]4C[C@H](OCCN)CC[C@]4(C)[C@H]3C[C@H](OCCN)[C@]12C [Compound 1] |  |  |  | 0.15 | 2.5 µg/mL | 38 µg/mL (≈ 60.6 µM) | 26 µg/mL (≈ 41.5 µM) | >25 µg/mL | 21 µg/mL (≈ 33.5 µM) | 50 µg/mL (≈ 79.7 µM) | 4.9 µg/mL (≈ 7.82 µM) | 5.7 µg/mL (≈ 9.09 µM) | 3.1 µg/mL (≈ 4.94 µM) | 4.4 µg/mL (≈ 7.02 µM) | 3.0 µg/mL (≈ 4.78 µM) | 4.7 µg/mL | 0.22 | 4.4 µg/mL | 0.096 | 1.5 µg/mL | MIC: concentration required to lower the MIC of erythromycin from 70 μg/mL to 1 μg/mL [1]: 2 µg/mL; MBC (with erythromycin) [1]: 20 µg/mL; MIC: concentration required to lower the MIC of novobiocin from >500 μg/mL to 1 μg/mL [2]: 20 µg/mL; MBC (with novobiocin) [2]: 34 µg/mL; MIC: concentration required to lower the MIC of erythromycin from 60 μg/mL to 1 μg/mL [3]: 2 µg/mL; MBC (with erythromycin) [3]: 14 µg/mL; MBC [4, 13]: >50 µg/mL; MIC [4, 13]: 15 µg/mL (≈ 23.9 µM)
3 | CCCOCCC[C@@H](C)[C@H]1CC[C@H]2[C@@H]3[C@H](OCCCN)C[C@@H]4C[C@H](OCCCN)CC[C@]4(C)[C@H]3C[C@H](OCCCN)[C@]12C [Compound 112] | 0.4 µg/mL | 4.0 µg/mL | 0.048 | 0.12 | 0.59 µg/mL | 6.4 µg/mL (≈ 10.5 µM) | 4.6 µg/mL (≈ 7.57 µM) | 90 µg/mL (≈ 148 µM) | 86 µg/mL (≈ 141 µM) | 4.7 µg/mL (≈ 7.73 µM) | 3.1 µg/mL (≈ 5.1 µM) | 4.2 µg/mL (≈ 6.91 µM) | 0.55 µg/mL (≈ 0.905 µM) | 3.0 µg/mL (≈ 4.93 µM) | 2.4 µg/mL (≈ 3.95 µM) | 0.19 µg/mL | 0.015 | 0.39 µg/mL | 0.15 | 0.50 µg/mL | (d) Concentration required to lower the MIC of novobiocin from >500 to 1 μg/mL [2]: 0.8 µg/mL; FIC values with novobiocin [2]: 0.085
4 | C[C@H](CCCN(C)Cc1ccccc1)[C@H]1CC[C@H]2[C@@H]3[C@H](OCCCN)C[C@@H]4C[C@H](OCCCN)CC[C@]4(C)[C@H]3C[C@H](OCCCN)[C@]12C [Compound 2] |  |  |  | 0.078 | 0.23 µg/mL | >17 µg/mL | 11 µg/mL (≈ 16.4 µM) | 16 µg/mL (≈ 23.9 µM) | 13 µg/mL (≈ 19.4 µM) | 19 µg/mL (≈ 28.4 µM) | 3.4 µg/mL (≈ 5.08 µM) | 4.7 µg/mL (≈ 7.02 µM) | 1.0 µg/mL (≈ 1.49 µM) | 2.3 µg/mL (≈ 3.44 µM) | 2.0 µg/mL (≈ 2.99 µM) | 0.49 µg/mL | 0.36 | 4.5 µg/mL | 0.086 | 0.50 µg/mL | MIC: concentration required to lower the MIC of erythromycin from 70 μg/mL to 1 μg/mL [1]: 1 µg/mL; MBC (with erythromycin) [1]: 10 µg/mL; MIC: concentration required to lower the MIC of novobiocin from >500 μg/mL to 1 μg/mL [2]: 7 µg/mL; MBC (with novobiocin) [2]: 16 µg/mL; MIC: concentration required to lower the MIC of erythromycin from 60 μg/mL to 1 μg/mL [3]: 1 µg/mL; MBC (with erythromycin) [3]: 5 µg/mL; MBC [4, 13]: 40 µg/mL (≈ 59.8 µM); MIC [4, 13]: 9 µg/mL (≈ 13.5 µM)
